{"source": "paper PMC11756168", "about": "“Drug-drug interaction between ensitrelvir and tacrolimus in a patient undergoing treatment for COVID-19: a case report” (Journal of Pharmaceutical Health Care and Sciences, 2025)", "key": {"[1]": {"assay": "Pharmacokinetics of TAC (literature)", "type": "in vivo", "details": "human, blood; assumed, 1 L/kg at body weight 42 kg; read-out: volume of distribution (Vd) of TAC"}, "[2]": {"assay": "TAC blood level monitoring (Siemens Dimension EXL200, ACMIA method) in the patient", "details": "human"}, "[3]": {"assay": "One-compartment simulation of TAC levels with various F values", "set-up": "species or system human", "details": "for half-life: human, blood, oral, read-out: Estimated TAC half-life (converted)", "source_text": "(§1) t1/2=0.693/ke Cmax=Ctrough+F*Dose/Vd\n(§2) where C1 and C2 represent the TAC blood levels at times T1 and T2 in the same dosing interval (T2 > T1), respectively. Ctrough represents TAC blood levels immediately before administration and dose represents the TAC dose. The volume of distribution (Vd) was assumed to be 42 L (1 L/kg based on a body weight of 42 kg). If the Ctrough was unavailable, Ctrough was estimated using ke.\nNext, we evaluated the duration of DDI using ensitrelvir. […] Consequently, when F was set to 0.125, the simulated TAC levels matched the measured levels at 7:00 on day 8 (Supplemental Table S1). The estimated F value of TAC (0.125) was similar to that reported in a previous report (0.25 ± 0.20), which indicates the limited effect of ensitrelvir on the intestinal absorption of TAC. […] These pharmacokinetic analyses indicate that the DDI effect of ensitrelvir gradually diminishes over 7–10 days after its discontinuation. […] Therefore, caution regarding DDI with ensitrelvir should be exercised for 7–10 days after discontinuation of ensitrelvir. Furthermore, in the case of irreversible CYP3A inhibition, the timing of CYP3A expression recovery varies among individuals. Therefore, TAC after ensitrelvir treatment should be restarted at a reduced dosage and its blood levels should be closely monitored.\n^a The tacrolimus level was estimated using a one-compartment pharmacokinetics model for oral administration, without considering the absorption rate constant. For tacrolimus levels after day 8, only values predicted with F = 0.125 are shown."}, "[4]": {"details": "cited from earlier work"}, "[5]": {"assay": "Laboratory parameters (Scr, ALT) in the patient", "type": "in vivo, human"}, "[6]": {"assay": "One-compartment calculation of TAC elimination half-life from consecutive blood levels", "type": "in vivo", "details": "human, po, 1.5 mg, read-out: calculated t1/2 of TAC (converted)", "description": "Assuming a one-compartment model, the elimination rate constant (ke), elimination half-life (t1/2), and maximum plasma concentration (Cmax) of TAC were calculated as follows: ke=lnC1/C2/T2-T1\nas §1, §2"}, "[7]": {"test_system": "CYP3A"}, "[8]": {"test_system": "P-gp", "set-up": "method as in PMID 37043676", "details": "cited from earlier work"}, "[9]": {"assay": "Pharmacokinetics of ensitrelvir (literature)", "type": "in vivo, human", "details": "suggested from t1/2 51.4 h"}, "[10]": {"test_system": "breast cancer resistance protein (BCRP)", "set-up": "method as in PMID 37043676, PMID 37171749", "details": "cited from earlier work"}, "[11]": {"test_system": "SARS-CoV-2", "assay": "SARS-CoV2 PCR cycle threshold (Ct) in the patient", "type": "in vivo", "description": "On the day of admission, the patient was started on a five-day course of remdesivir (200 mg IV once, followed by 100 mg IV every 24 h for 4 days). The patient was also administered corticosteroid (day -30 to -21, dexamethasone 6 mg PO, once daily after breakfast; day -20 to -17, prednisolone 30 mg PO, once daily after breakfast). On day -23, baricitinib (2 mg PO, once daily after breakfast for 6 days) was administered. On day -17, methylprednisolone (1,000 mg IV, once daily for 5 days) was administered, followed by dexamethasone (6 mg IV, once daily after breakfast). The cycle threshold (Ct) value from the SARS-CoV2 PCR after treatment ([…]) was 25.73, indicating persistent viral presence; therefore, a second five-day course of remdesivir was administered. On day -13, tocilizumab (360 mg IV, once daily) was administered. […] Consequently, a third course of remdesivir was initiated on day -2 (200 mg IV once, followed by 100 mg IV daily for 9 days). On day 0, the patient was started on ensitrelvir treatment (375 mg PO once, followed by 125 mg PO for 4 days) in combination with remdesivir. At the time of the start of ensitrelvir therapy (day 0), the patient was taking the following medications: TAC (1.5 mg PO, once daily after dinner), dexamethasone (6 mg IV, once daily), sulfamethoxazole/trimethoprim (400 mg/80 mg PO, once daily after breakfast), rosuvastatin (5 mg PO, once daily after breakfast), nicorandil (5 mg PO, 3 times daily after meals), aspirin (100 mg PO, once daily after breakfast), esomeprazole (20 mg PO, once daily after breakfast), rivastigmine patch (18 mg, once daily), and subcutaneous denosumab (60 mg, every six months). The patient had received a COVID-19 vaccine approximately one year ago. The patient had no supplements or over-the-counter drugs. Grapefruit was not offered during the hospital stay. Before the start of ensitrelvir therapy, a clinical pharmacist informed the attending physician regarding the potential DDI between ensitrelvir and TAC or rosuvastatin (BCRP substrate) and recommended avoiding the concomitant use. Consequently, TAC was discontinued from the day before the start of ensitrelvir (day -1), and TAC blood levels were frequently monitored using a Siemens Dimension EXL200 with Flex Cartridge Tacrolimus (ACMIA method, Siemens). Rosuvastatin treatment was discontinued on day 0. Given that ensitrelvir is metabolized by CYP3A [17], dexamethasone, which reportedly induces CYP3A [18], was replaced with methylprednisolone on day 1."}, "[12]": {"test_system": "CYP3A and P-gp", "details": "cited from earlier work"}, "[13]": {"test_system": "CYP3A", "details": "ensitrelvir co-administration; cited from earlier work"}, "[14]": {"assay": "CT imaging of the lungs in the patient", "type": "in vivo, human", "details": "day 18, after ensitrelvir in combination with remdesivir"}, "[15]": {"test_system": "P-glycoprotein (P-gp)", "set-up": "method as in PMID 37043676, PMID 37171749", "details": "cited from earlier work"}, "[16]": {"test_system": "Cytochrome P450 3A (CYP3A)", "details": "cited from earlier work"}, "[17]": {"details": "cited from earlier work", "remark": "listed apart in the source"}}, "note": "“Also recorded” adds a separate entry of the source."}
{"smiles": "C=CC[C@@H]1/C=C(\\C)C[C@H](C)C[C@H](OC)[C@H]2O[C@@](O)(C(=O)C(=O)N3CCCC[C@H]3C(=O)O[C@H](/C(C)=C/[C@@H]3CC[C@@H](O)[C@H](OC)C3)[C@H](C)[C@@H](O)CC1=O)[C@H](C)C[C@@H]2OC", "note": "[TAC, Tacrolimus]", "values": [{"measurement": "Vd", "setting": "[1]", "result": 42, "unit": "L"}, {"measurement": "concentration at 11 h", "setting": "[2]; oral", "result": 5.1, "unit": "ng/mL"}, {"measurement": "concentration at 12 h", "setting": "[2]; oral, 1 mg", "result": 6.5, "unit": "ng/mL"}, {"measurement": "concentration at 20 h", "setting": "[2]; oral, 1 mg", "result": 3.7, "unit": "ng/mL"}, {"measurement": "concentration at 21.5 h", "setting": "[2]; oral, 1.5 mg", "result": 3.6, "unit": "ng/mL"}, {"measurement": "concentration at 35.5 h", "setting": "[2]; oral, 1.5 mg", "result": 2.7, "unit": "ng/mL"}, {"measurement": "concentration at 83.5 h", "setting": "[2]; oral, 1.5 mg", "result": 1.7, "unit": "ng/mL"}, {"measurement": "concentration at 155.5 h", "setting": "[2]; oral, 1.5 mg", "result": 1.1, "unit": "ng/mL"}, {"measurement": "concentration at 5 days", "setting": "[2]; oral, 2 mg", "result": 6.6, "unit": "ng/mL"}, {"measurement": "concentration at 36 h", "setting": "[2]; po, 0.2 mg", "result": 1, "unit": "ng/mL"}, {"measurement": "concentration at 12 h", "setting": "[2]; po, 1 mg", "result": 3.9, "unit": "ng/mL"}, {"measurement": "estimated F value of TAC", "setting": "[3]; after ensitrelvir administration, simulated levels matched measured level at 7:00 on day 8", "result": 0.125}, {"measurement": "half-life", "setting": "[3]; 1 mg, day 8 to 12, assuming bioavailability 0.125", "result": 2390, "unit": "min"}, {"measurement": "half-life", "setting": "[3]; 1 mg, day 12 to 14, assuming bioavailability 0.125", "result": 1400, "unit": "min"}, {"measurement": "half-life", "setting": "[3]; Day5, 7:00 to Day8, 7:00, hypothesized to continue from days 2-5 until day 8", "result": 6880, "unit": "min"}, {"measurement": "volume of distribution (Vd) of TAC", "setting": "[4]; assumed", "result": 1, "unit": "L/kg"}, {"measurement": "F value of TAC in a previous report", "setting": "[4]", "result": "0.25 ± 0.20"}, {"measurement": "reported t1/2 of TAC", "setting": "[4]", "result": 32, "unit": "h"}, {"measurement": "Scr levels", "setting": "[5]; TAC maintained at 1.5 mg daily, normal range 0.75—1.0 mg/dL", "result": "within normal range"}, {"measurement": "half-life", "setting": "[6]; day 0 to 2, under ensitrelvir", "result": 3, "unit": "days"}, {"measurement": "half-life", "setting": "[6]; day 2 to 5, under ensitrelvir", "result": 4.78, "unit": "days"}, {"measurement": "half-life", "setting": "[6]; day -1 to 0, before ensitrelvir", "result": 1.4, "unit": "days"}]}
{"smiles": "Cn1cnc(Cn2c(=O)[nH]/c(=N\\c3cc4cn(C)nc4cc3Cl)n(Cc3cc(F)c(F)cc3F)c2=O)n1", "note": "[ensitrelvir, Ensitrelvir]", "values": [{"measurement": "time over which the DDI effect diminished/resolved", "setting": "[7]; after discontinuation of ensitrelvir", "result": "7 to 10", "unit": "days"}, {"measurement": "increase in the AUC of TAC by inhibition of CYP3A in the liver", "setting": "[7]; inferred from t1/2 prolongation", "result": "threefold increase"}, {"measurement": "effect on AUC of digoxin (P-gp substrate)", "setting": "[8]", "result": "increased the AUC of digoxin"}, {"measurement": "time required to clear ensitrelvir from the body", "setting": "[9]", "result": "7 to 8", "unit": "days"}, {"measurement": "inhibition of BCRP", "setting": "[10]", "result": "strongly inhibits"}, {"measurement": "SARS-CoV-2 PCR Ct value", "setting": "[11]; day 0, start of ensitrelvir in combination with remdesivir", "result": 25.88}, {"measurement": "SARS-CoV-2 PCR Ct value", "setting": "[11]; day 5, ensitrelvir in combination with remdesivir", "result": 30.03}, {"measurement": "SARS-CoV-2 PCR Ct value", "setting": "[11]; day 12, after ensitrelvir in combination with remdesivir", "result": 34.36}, {"measurement": "SARS-CoV-2 PCR Ct value", "setting": "[11]; day 19, after ensitrelvir in combination with remdesivir", "result": 34.89}, {"measurement": "increase in TAC trough/blood levels with concurrent ensitrelvir", "setting": "[12]", "result": "approximately threefold; also recorded: approximate three-fold increase"}, {"measurement": "increase of AUC of midazolam", "setting": "[13]", "result": 6.7, "unit": "fold"}, {"measurement": "increase of t1/2 of midazolam", "setting": "[13]", "result": 2.3, "unit": "fold"}, {"measurement": "Scr level", "setting": "[5]; during ensitrelvir treatment", "result": "remained within normal ranges"}, {"measurement": "alanine aminotransferase (ALT) level", "setting": "[5]; during ensitrelvir treatment", "result": "remained within normal ranges"}, {"measurement": "CT imaging of lung fields", "setting": "[14]", "result": "improved inflammation in both lung fields"}, {"measurement": "inhibition of P-gp", "setting": "[15]", "result": "strongly inhibits"}, {"measurement": "inhibition of CYP3A", "setting": "[16]", "result": "strongly inhibits"}, {"measurement": "manner of CYP3A inhibition", "setting": "[16]", "result": "time-dependent and irreversible manner"}, {"measurement": "half-life of ensitrelvir", "setting": "[17]", "result": "approximately 50 h"}]}
{"smiles": "CCC(CC)COC(=O)[C@H](C)N[P@](=O)(OC[C@H]1O[C@@](C#N)(c2ccc3c(N)ncnn23)[C@H](O)[C@@H]1O)Oc1ccccc1", "note": "[remdesivir]", "values": [{"measurement": "SARS-CoV2 PCR Ct value", "setting": "[11]; after first five-day course of remdesivir, day 15 (so in the source)", "result": 25.73}, {"measurement": "SARS-CoV2 PCR Ct value", "setting": "[11]; day -7, after second five-day course of remdesivir", "result": 26.18}]}
